Where two headings read alike, the source gives them in different places.
Assays:
MSTO-211H cells = assay: Anchorage-independent growth-death assay (methylcellulose, CellTiter-Glo, 6 days); format: cell-based, human; conditions: for IC50: Homo sapiens
Method: (§1) Five human mesothelioma cell lines and two additional human lung cancer cell lines available from the ATCC were used in these studies. Cells were grown in RPMI1640 media containing 10% FBS, 1% L-glutamine, 1% sodium pyruvate under standard cell culture conditions. The mesothelioma cell lines: NCI-H2052, MSTO-211H, NCI-H28, NCI-H226, NCI-H2452, and additional lung lines: A549 and SW-1573. An additional three mesothelioma cell lines, Mero-41, Mero-82, and Mero-14, were grown under identical conditions.
(§2) The cellular response to Compound A was evaluated in an anchorage-independent cell growth assay that quantified the extent of cell growth inhibition and the net change in cell population. The assay was performed in black, clear bottom, untreated 384-well plates (Greiner #781096). It is important to use either non-tissue culture treated or Low Attachment plates to prevent cells from adhering to the plate during the assay. In brief, the assay was performed as described below.
(§3) A 1% (weight/volume) stock of methylcellulose solution was prepared by dissolving 5 grams of sterilized methylcellulose (Sigma #M0512) in 495 mL of cell culture medium. Here, RPMI1640 media containing 10% FBS, 1% L-glutamine, 1% sodium pyruvate was added to the cooled methylcellulose that had been placed in a glass container and autoclaved to sterilize. Media can be substituted if the cells require different cell culture medium for growth. The dissolution often took a day with vigorous stirring at 4° C. maintaining sterile conditions.
(§4) Cells were plated into a 384 well plate with assay conditions of 0.65% methylcellulose (final concentration) and 1000 cells per well in a final volume of 48 μL. This was achieved by diluting cells harvested from culture and re-suspended in growth medium (dilute to 2.0833×10^4 cells/mL) with the 1% methylcellulose. The cells were mixed by inversion to distribute evenly, bubbles were dispersed and 48 μL was placed into the well with a positive displacement pipette. The plates were placed in a cell culture incubator containing 5% CO2 at 37° C.
(§5) Serial dilution of compound in DMSO was done in a 384 well plate starting with 20 μL of stock compound solution in the first column and 10 μL of DMSO in the other wells. Ten μL from the compound well was transferred into the DMSO containing well, mixed, and the serial dilution was continued with 10 μL transfers across the plate. Then, 4 μL of this DMSO diluted compound was added into wells of a new 384 well plate containing 105 μL of appropriate growth medium. This ‘compound plate’ was used to dose the assay plates containing cells in methylcellulose.
(§6) To initiate the assay, two μL from each well of the ‘compound plate’ were added to individual wells of the ‘assay plates,’ each well containing the 48 μL of cells in methylcellulose. These assay plates were placed in the cell culture incubator for 6 days. One plate was selected at random and developed with Cell TiterGlo (CTG) at the time of compound addition to represent the time equal zero (T0) plate, i.e. to represent the number of cells at the time of compound addition.
(§7) On day 6, the assay was stopped by developing the plates, placing a black sticker on bottom of each plate to block light, adding 25 μL of CTG, and incubating the plates for 20 minutes at room temperature. The plates were scanned using a luminescence protocol on the EnVision (Perkin-Elmer).
(§8) Results were expressed as a percent of the T0 value and plotted against the compound concentration. […] The cellular response was determined by fitting the concentration response curves using a 4-parameter curve fit equation and determining the concentration that inhibited growth by 50% (gIC50). The gIC50 value is the midpoint of the growth window (between T0 and growth of DMSO controls). […]

Mero-14 cells = assay: as above; format: cell-based, human; conditions: second anchorage-independent assay, Mero-14, merlin negative
Method: as §1, §2, §3, §4, §5, §6, §7, §8

Mero-41 cells = assay: as above; format: cell-based, human; conditions: second anchorage-independent assay, Mero-41, merlin negative
Method: as §1, §2, §3, §4, §5, §6, §7, §8

Mero-82 cells = assay: as above; format: cell-based, human; conditions: second anchorage-independent assay, Mero-82, merlin negative
Method: as §1, §2, §3, §4, §5, §6, §7, §8

NCI-H2052 cells = assay: as above; format: cell-based, human; conditions: for IC50: Homo sapiens, read-out: Growth Inhibition gIC50
Method: as §1, §2, §3, §4, §5, §6, §7, §8

NCI-H226 cells = assay: as above; format: cell-based, human; conditions: second anchorage-independent assay, NCI-H226, merlin negative
Method: as §1, §2, §3, §4, §5, §6, §7, §8

[1] = test system: merlin negative cell lines; assay: Anchorage-independent growth-death assay, merlin negative cell line panel; format: cell-based; conditions: Homo sapiens, ALL5; second anchorage-independent assay; all 5 merlin negative cell lines; read-out: gIC50 values
Method: as §1
The cellular response to Compound A was evaluated in an anchorage-independent cell growth assay that quantified the extent of cell growth inhibition and the net change in cell population. The assay was performed in black, clear bottom, untreated 384-well plates (Greiner #781096). […]
as §7
Results were expressed as a percent of the T0 value and plotted against the compound concentration. […] The cellular response was determined by fitting the concentration response curves using a 4-parameter curve fit equation and determining the concentration that inhibited growth by 50% (gIC50). […]

[2] = test system: patients with mesothelioma; assay: Phase I clinical study, anti-tumor activity (RECIST 1.1, Kaplan-Meier PFS) by merlin status; format: in vivo, human
Text: A multi-part, Phase I study was designed to determine the maximum tolerated dose (MTD), safety, tolerability, pharmacokinetics (PK), pharmacodynamics (PD), and anti-tumor activity of Compound A in patients with advanced solid tumors. Part 1 of the study identified the MTD using a dose escalation procedure, and is described herein. Parts 2-3 are ongoing. Part 2 further explores the safety and tolerability of Compound A at or below the MTD, and Part 3 evaluates the pharmacodynamics of Compound A at doses at and below the MTD. Part 4 was not opened for patient accrual at the time of this summary and will explore the safety, tolerability, pharmacokinetics and clinical activity of Compound A in patients with recurrent glioblastoma multiforme. Part 5 was not opened for patient accrual at the time of this summary and will explore the pharmacokinetics of Compound A over several weeks of administration. Patients with mesothelioma were eligible to participate, e.g, in Part 1, of the study. Patients with mesothelioma were eligible to participate in Parts 1-3 of the study at the time the data below were collected.
Patients 18 years old with advanced solid tumors with histologically or cytologically confirmed diagnosis of a solid tumor malignancy that was not responsive to accepted standard therapies or for which there is no standard or curative therapy were eligible. All patients provided signed informed consent. […] In Parts 2-3 of the study, patients with tumors reported in the literature to overexpress FAK that are not responsive to accepted standard therapies or for which there were no standard or curative therapies were included. Subjects in Part 3 were also required to have solid tumors amenable to biopsy.
Patients with an active gastrointestinal disease known to interfere with the pharmacokinetics of drugs or prior resection of the small intestine were ineligible. Other exclusion criteria included unresolved toxicity>Grade 1 from previous anticancer therapy except alopecia, QTcF interval>450 msecs in males (470 in females) or congenital long QT syndrome, history of acute coronary syndromes, Class II-IV heart failure as defined by the New York Heart Association, symptomatic or untreated brain metastases, primary malignancy of the central nervous system (in Parts 1-3), nursing females, consumption of dietary substances or prohibited medications as defined in the protocol, or any serious and/or unstable pre-existing medical, psychiatric, or other condition that could interfere with subject safety or obtaining informed consent.
Measurements to evaluate safety included weight, heart rate, blood pressure, temperature, clinical laboratory tests, 12-lead ECG, and neurologic and physical evaluation. Adverse events were assessed throughout the study using the CTCAE v4.0, Common Terminology Criteria for Adverse Events (CTCAE) Version 4.0, US Department of Health and Human Services, National Institutes of Health, National Cancer Institute, May 2009.
Disease assessment was performed at screening and every 6 weeks after the start of dosing. Response was recorded as complete response (CR), partial response (PR), stable disease (SD), or progressive disease (PD) according to the RECIST Version 1.1.
To determine if loss of merlin in the current Phase I mesothelioma population was predictive of response to Compound A, merlin levels were assessed in archival tissue (FFPE) collected at screening by immunohistochemistry (IHC), and the result correlated to clinical endpoint of median progression free survival (PFS).
A custom IHC assay was developed by Mosaic laboratories, Inc, employing a rabbit polyclonal antibody (Santa Cruz Biotechnology, Inc, catalog # SC332) using a dilution of 1:1600. The antibody signal was evaluated by Envision+rabbit HRP (DAKO) detection kit, and the staining intensity (Grade 0-3+) was used to categorize merlin status (merlin positive=wildtype or merlin negative=loss of merlin) of the clinical samples tested. […]

[3] = Homo sapiens, read-out: Growth Inhibition gIC50
[4] = second anchorage-independent assay, NCI-H2052, merlin negative
[5] = mesothelioma patients, 26 with radiologic assessments, RECIST 1.1

SMILES: CONC(=O)c1ccccc1Nc1cc(Nc2cc(C)nn2C(C)C)ncc1Cl [Compound A, 2-[(5-chloro-2-{[3-methyl-1-(1-methylethyl)-1H-pyrazol-5-yl]amino}-4-pyridinyl)amino]-N-(methyloxy)benzamide]
- IC50 (MSTO-211H cells; 144 h, initial anchorage-independent assay, MSTO-211H, NF2 wild-type, merlin positive, 6 days, read-out: Growth Inhibition gIC50): 3590 nM
- IC50 (MSTO-211H cells; second anchorage-independent assay, MSTO-211H, merlin positive, read-out: Growth Inhibition gIC50): 10900 nM
- IC50 (MSTO-211H cells; second anchorage-independent assay, merlin positive cell line (MSTO-211H), read-out: Concentration required for 50% growth inhibition): ~10000 nM
- Net Pop. change Ymin-T0 (MSTO-211H cells; initial anchorage-independent assay, MSTO-211H, NF2 wild-type, 6 days, highest concentration ~30 μM): 343%
- Net Population Change Ymin-T0 (MSTO-211H cells; second anchorage-independent assay, MSTO-211H, merlin positive): 367%
- IC50 (Mero-14 cells; [3]): 63 nM
- Net Population Change Ymin-T0 (Mero-14 cells): −55%
- IC50 (Mero-41 cells; [3]): 54 nM
- Net Population Change Ymin-T0 (Mero-41 cells): −54%
- IC50 (Mero-82 cells; [3]): 59 nM
- Net Population Change Ymin-T0 (Mero-82 cells): −22%
- IC50 (NCI-H2052 cells; 144 h, initial anchorage-independent assay, NCI-H2052, NF2 mutant, merlin negative, 6 days): 186 nM
- IC50 (NCI-H2052 cells; [4]): 236 nM
- Net Pop. change Ymin-T0 (NCI-H2052 cells; initial anchorage-independent assay, NCI-H2052, NF2 mutant, 6 days): −3%
- Net Population Change Ymin-T0 (NCI-H2052 cells; [4]): 7%
- IC50 (NCI-H226 cells; [3]): 196 nM
- Net Population Change Ymin-T0 (NCI-H226 cells): −18%
- IC50 [1]: < 250 nM
- Overall median progression free survival (PFS) ([2]; all mesothelioma patients, 95% CI 9.7, 24.1, Kaplan-Meier): 17.7 weeks
- Patients with PD as best response to treatment [2, 5]: 9 patients
- Patients with SD as best response to treatment [2, 5]: fourteen
- Patients with non-CR/non-PD as best response to treatment [2, 5]: three
- PR or CR; minor responses ([2]; mesothelioma patients, RECIST 1.1): no patients experienced a PR or CR, minor responses in some patients with mesothelioma were seen
- Merlin negative patients remaining on study for more than four months ([2]; mesothelioma, merlin negative): Seven of 14
- Median PFS in merlin negative subjects ([2]; mesothelioma, merlin negative, n=14, 95% CI 6.0, 29.3): 24.1 weeks
- Merlin positive patients remaining on study for more than four months ([2]; mesothelioma, merlin positive): three of nine
- Median PFS in merlin positive subjects ([2]; mesothelioma, merlin positive, n=9, 95% CI 7.3, undefined): 11.4 weeks

Reference: US9192604B2, “Method of administration and treatment” (GlaxoSmithKline Intellectual Property (No. 2) Limited, priority 2011, dated 2015)
